Test results as given in patent publication EP4755880A1, “SUBSTITUTED NITROGEN-CONTAINING BICYCLIC COMPOUND AND USE THEREOF” (Sunshine Lake Pharma Co., Ltd., priority 2023, dated 2025).

Experiments:
[1] = system: MDA-MB-436 cells; assay: Inhibition of proliferation of MDA-MB-436 cells (CellTiter-Glo); type: cell-based; settings: Homo sapiens, MDA-MB-436, 168 h, 7 days incubation
Experimental: • 1. Cell Pretreatment: MDA-MB-436 cells were cultured in DMEM + 10% FBS + 1% penicillin-dip antibiotics + 1% ITS + 16 µg/ml glutathione. Cells in the logarithmic growth phase were digested with trypsin-EDTA, centrifuged and resuspended, and then seeded at a rate of 500-1000 cells/well in sterile 96-well opaque plates, 90 µl per well. After seeding, the cell culture plates were incubated overnight at 37°C with 5% CO2 before drug treatment. • 2. Drug treatment of MDA-MB-436 cells: The test compound was prepared as a 10 mM stock solution using DMSO. The drug was then diluted to a 10× working solution using growth medium (the compound was started at 100 µM and diluted 4-fold to achieve 9 concentrations). 10 µl of the 10× working solution was added to each well to achieve final drug concentrations of 10000, 2500, 625, 156, 39, 9.7, 2.4, 0.61, and 0.152 nM, respectively. Blank control wells containing the same DMSO concentration were also included, with three replicates for each concentration. After drug addition, the cells were incubated at 37°C with 5% CO2 for 7 days. • 3. After incubation, 100 µl of CellTiter-Glo® Reagent was added to each well, and luminescence was measured. The IC50 value of cell proliferation inhibition was calculated using GraphPad software to fit the curve. Table E: Results of the inhibitory effect of the compound of this invention on the proliferation of MDA-MB-436 cells.

[2] = system: DLD-1 BRCA2(-/-) cells; assay: Inhibition of proliferation of DLD-1 BRCA2(-/-) cells (CTG method); type: cell-based; settings: Homo sapiens, DLD-1, 168 h; 7 days incubation, CellTiter-Glo
Experimental: • 1. Cell Pretreatment: DLD-1 BRCA2(-/-) cells were cultured in growth medium 1640 + 10% FBS (fetal bovine serum) + 1% Penicillin-Streptomycin. Cells in the logarithmic growth phase were digested with trypsin-EDTA, centrifuged, and resuspended. DLD-1 BRCA2(-/-) cells were seeded at 1,000 cells/well in sterile 96-well opaque plates, 75 µl per well. After seeding, the cell culture plates were incubated overnight at 37 °C with 5% CO2 before adhesion, followed by treatment with the test compounds. • 2. DLD-1 BRCA2(-/-) Cell Drug Treatment: The test compound was prepared as a 10 mM stock solution using DMSO. The test compound was then diluted to a 4× working solution using growth medium (starting at 40 µM, with 9 4-fold dilutions). 25 µl of 4× working solution was added to each well to achieve final concentrations of 10000, 2500, 625, 156, 39, 9.7, 2.4, 0.61, and 0.152 nM, respectively. Blank control wells containing the same DMSO concentration were also included, with three replicates for each concentration. After adding the test compound, the cells were incubated at 37 °C with 5% CO2 for 7 days. • 3. After incubation, 100 µl of CellTiter-Glo® Reagent was added to each well, and […] intensity was measured. A curve was fitted using GraphPad software, and the IC50 value for cell proliferation inhibition was calculated.

[3] = target: PARP1 (Homo sapiens, UniProt P09874); assay: Inhibition of PARP1 enzyme activity (ELISA, chemiluminescence); type: biochemical; settings: for IC50: ELISA, histone-coated plate, NAD+, 60 min at 25 °C; for Selectivity PARP2/PARP1: ratio of PARP2 IC50 to PARP1 IC50
Chain of PARP1 (P09874 whole entry): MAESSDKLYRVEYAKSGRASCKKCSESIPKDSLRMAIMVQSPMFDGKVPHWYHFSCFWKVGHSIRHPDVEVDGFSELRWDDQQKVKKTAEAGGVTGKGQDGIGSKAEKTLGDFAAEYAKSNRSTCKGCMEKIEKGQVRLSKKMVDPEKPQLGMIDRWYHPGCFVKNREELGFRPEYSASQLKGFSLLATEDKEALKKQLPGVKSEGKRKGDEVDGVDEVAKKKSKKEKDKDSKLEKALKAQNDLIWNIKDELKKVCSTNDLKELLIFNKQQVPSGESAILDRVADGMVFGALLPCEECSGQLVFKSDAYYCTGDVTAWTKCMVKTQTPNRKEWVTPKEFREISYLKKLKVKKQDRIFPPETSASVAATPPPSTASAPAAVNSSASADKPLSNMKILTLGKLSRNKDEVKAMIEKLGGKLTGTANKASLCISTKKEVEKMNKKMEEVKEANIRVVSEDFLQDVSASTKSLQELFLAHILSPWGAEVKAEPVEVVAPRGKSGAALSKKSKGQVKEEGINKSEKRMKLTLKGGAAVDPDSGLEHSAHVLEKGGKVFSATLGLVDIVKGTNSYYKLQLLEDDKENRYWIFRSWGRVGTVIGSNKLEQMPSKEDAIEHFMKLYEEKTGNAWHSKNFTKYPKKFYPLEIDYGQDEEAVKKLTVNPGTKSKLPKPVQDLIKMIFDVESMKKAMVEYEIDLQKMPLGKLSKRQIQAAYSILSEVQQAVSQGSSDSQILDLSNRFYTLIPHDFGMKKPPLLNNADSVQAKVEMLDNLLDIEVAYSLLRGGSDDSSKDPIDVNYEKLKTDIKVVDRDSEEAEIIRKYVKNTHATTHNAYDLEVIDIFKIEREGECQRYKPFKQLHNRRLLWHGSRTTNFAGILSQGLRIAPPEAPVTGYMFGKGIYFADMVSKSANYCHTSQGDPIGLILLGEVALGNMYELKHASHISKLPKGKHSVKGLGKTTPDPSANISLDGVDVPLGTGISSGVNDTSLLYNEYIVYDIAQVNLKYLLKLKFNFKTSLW
Experimental: (§1) Experimental Objective: To evaluate the inhibitory effect of the compounds of the present invention on the enzyme activities of PARP1 and PARP2 using ELISA.
(§2) • 1. histone-coated 384-well plates was prepared: 25 µL of histone solution was added to each well and incubated overnight at 4 °C. • 2. PBST buffer, blocking buffer (PBS buffer with 5% BSA and 0.05% Tween-20 added) and detection buffer (20 mM HEPES pH 7.5 + 100 mM NaCl + 2 mM DTT + 0.002% Tween-20 + 0.1% BSA) were prepared. • 3. The histone-coated 3 84-well plate was washed three times with PBST buffer, blocked at room temperature with 50 µL blocking buffer for 1 hour, and then washed three times with PBST buffer. • 4. Test compounds were prepared as 2000-fold stock solutions in DMSO. 50 nL of the stock solution was mixed with 19.95 µL detection buffer, and 5 µL of the gradient-diluted test compound was transferred to each well. • 5. Enzymatic reaction (PARP1): PARP1 & DNA mix was pre-incubated at 25 °C for 10 minutes. 10 µL of the PARP1 & DNA mix was added to each well and incubated with the test compound at room temperature for 10 minutes. […] Finally, the 384-well plate was washed three times with PBST buffer. Enzymatic reaction (PARP2): PARP2 was pre-incubated at 25 °C for 10 minutes. 10 µL of PARP2 was added to each well and incubated with the test compound at room temperature for 10 minutes. […] Finally, the 384-well plate was washed three times with PBST buffer. • 6. Detection (PARP1): 20 µL of anti-Poly/Mono-ADP Ribose Rabbit mAb was added and incubated at room temperature for 1.5 hours, followed by three washes of the 384-well plate with PBST buffer. Then, 20 µL of diluted anti-rabbit IgG, HRP-linked Antibody (diluted 1:2000 in blocking buffer) was added and incubated at room temperature for 1 hour. After washing the plate three times with PBST buffer, 25 µL of a 1:1 mixture of Femto-ECL Substrate A and Femto-ECL Substrate B was added. Detection (PARP2): 25 µL of Strep-HRP was added and incubated at room temperature for 1 hour, followed by three washes of the 384-well plate with PBS buffer. Then, 25 µL of a 1:1 mixture of Femto-ECL Substrate A and Femto-ECL Substrate B was added. • 7. Chemiluminescence intensity was measured using an Envision multimode microplate reader. • 8. Data Processing
(§3) The inhibition rate was calculated in Excel using formula (1). inh% = (Max−Signal)/(Max−Min)*100 [formula]
(§4) The IC50 value was obtained by fitting the data in XL-Fit using formula (2). Y = bottom + (top−bottom)/(1+(IC50/X)*HillSlope); [formula] wherein Y is the inhibition percentage and X is the compound concentration.

[4] = target: PARP2 (Homo sapiens, UniProt Q9UGN5); assay: biochemical;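 further: PARP2 enzyme ELISA on histone-coated plates, Strep-HRP detection with chemiluminescence read-out, 10 min compound preincubation with enzyme, inhibition scaled between Max and Min signal controls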
Chain of PARP2 (Q9UGN5 whole entry): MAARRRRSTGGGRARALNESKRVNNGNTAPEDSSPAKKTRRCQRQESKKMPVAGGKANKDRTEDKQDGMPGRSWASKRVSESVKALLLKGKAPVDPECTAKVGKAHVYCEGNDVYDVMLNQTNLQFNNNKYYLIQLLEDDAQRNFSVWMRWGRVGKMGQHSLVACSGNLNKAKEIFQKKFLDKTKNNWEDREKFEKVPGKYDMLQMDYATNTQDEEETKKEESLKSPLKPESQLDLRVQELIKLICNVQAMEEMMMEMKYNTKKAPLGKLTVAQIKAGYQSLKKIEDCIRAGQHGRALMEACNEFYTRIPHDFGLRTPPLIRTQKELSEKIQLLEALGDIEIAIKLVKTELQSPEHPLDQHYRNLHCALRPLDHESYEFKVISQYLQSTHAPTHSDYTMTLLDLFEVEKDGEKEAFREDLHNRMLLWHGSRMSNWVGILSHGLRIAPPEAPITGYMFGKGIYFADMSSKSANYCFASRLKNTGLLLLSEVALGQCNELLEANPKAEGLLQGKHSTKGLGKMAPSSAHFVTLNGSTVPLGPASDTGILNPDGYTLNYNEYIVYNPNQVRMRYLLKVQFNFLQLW
Experimental: as §1, §2, §3, §4

[5] = Pharmacokinetics in mice after intravenous injection or gavage; settings: BALB/c, mouse, plasma
Experimental: The compounds of the present invention were administered to test animals in the form of 5% DMSO + 30% PEG400 + 65% physiological saline, 10% DMSO + 10% Kolliphor HS15 + 80% Saline, 10% DMSO + 89% (25% SBE-B-CD) + (2% HCl), 20% PEG400 + 80% sterile water for injection, or 10% DMA+ 10% HS15 + 30% PEG400 + 50% sterile aqueous solution for injection. Animals were fasted for 12 hours before administration but had free access to water. For the intravenous administration group, the dose was 1 mg/kg. Blood samples (approximately 0.15 mL) were collected intravenously at the following time points after administration: 0.083, 0.25, 0.5, 1.0, 2.0, 4.0, 6.0, 8.0 and 24 h (dogs) or 0.083, 0.25, 0.5, 1.0, 2.0, 5.0, 7.0 and 24 h (mice and rats) or 0.083, 0.25, 0.5, 1.0, 2.0, 6.0, 8.0 and 24 h (monkeys). EDTA-K2 was pre-added to the blood collection tube as an anticoagulant. The blood samples were centrifuged at 12,000 rpm for 2 minutes, and plasma was collected and stored at -20 °C or - 70 °C. For the gavage administration group, the dosage was 1 mg/kg (mice, dogs, and monkeys) or 5 mg/kg (rats). After administration, venous blood samples (approximately 0.15 mL) were collected at the following time points: 0.25, 0.5, 1.0, 2.0, 4.0, 6.0, 8.0, and 24 h (dogs) or 0.25, 0.5, 1.0, 2.0, 5.0, 7.0, and 24 h (mice and rats) or 0.25, 0.5, 1.0, 2.0, 6.0, 8.0, and 24 h (monkeys). EDTA-K2 was pre-added to the blood collection tube as an anticoagulant. The blood samples were centrifuged at 12,000 rpm for 2 minutes, and plasma was collected and stored at -20 °C or -70 °C.
The collected plasma samples were processed (frozen plasma was thawed at room temperature, vortexed for 15 s to mix, 10-20 µL of plasma was taken, 120-150 µL of acetonitrile solution containing internal standard was added, vortexed for 5 min to mix, centrifuged at 4,000 rpm for 5 min, 100 µL of supernatant was taken, and 120-150 Ml/water (v/v = 1/1) was added and mixed). The concentration of compounds in the plasma was then analyzed by LC-MS/MS.

Row | SMILES | IC50 [1] [nM] | IC50 [2] [nM] | IC50 [3] [nM] | Selectivity PARP2/PARP1 [3] | IC50 [4] [nM] | further results
1 | CNC(=O)c1ccc(N2CCN(Cc3cc(Oc4ccc(F)cc4)c4nc(C)c(=O)[nH]c4c3)CC2)c(F)n1 [Example 6, 6-fluoro-5-(4-((8-(4-fluorophenoxy)-2-methyl-3-oxo-3,4-dihydroquinoxalin-6-yl)methyl)piperazin-1-yl)-N-methylpicolinamide] | 6.8 | 14.5 | 1.2 | 700.1 | 839 | 
2 | CNC(=O)c1ccc(N2CCN(Cc3cc(OC(F)F)c4nc(C)c(=O)[nH]c4c3F)CC2)c(F)n1 [Example 14, 5-(4-((8-(difluoromethoxy)-5-fluoro-2-methyl-3-oxo-3,4-dihydroquinoxalin-6-yl)methyl)piperazin-1-yl)-6-fluoro-N-methylpicolinamide] |  | 9.3 | 27.7 | 348.3 | 9660 | AUC(0-t) ([5]; iv, 2 mg/kg): 4680 ng·h/mL; Cmax ([5]; iv, 2 mg/kg): 2080 ng/mL; half-life ([5]; iv, 2 mg/kg): 3.3 h; AUC(0-t) ([5]; po, 5 mg/kg): 16200 ng·h/mL; Cmax ([5]; po, 5 mg/kg): 3830 ng/mL; half-life ([5]; po, 5 mg/kg): 3.3 h
3 | CNC(=O)c1ccc(C2=CCN(Cc3cc(OC(F)F)c4nc(C)c(=O)[nH]c4c3F)CC2)c(F)n1 [Example 16, 1'-((8-(difluoromethoxy)-5-fluoro-2-methyl-3-oxo-3,4-dihydroquinoxalin-6-yl)methyl)-2-fluoro-N-methyl-1',2',3',6'-tetrahydro-[3,4'-bipyridine]-6-carboxamide] | 6.2 |  | 2.8 | >3625 | > 10000 | 
4 | CNC(=O)c1ccc(N2CCN(Cc3cc(OC4CC(F)(F)C4)c4nc(C)c(=O)[nH]c4c3)CC2)c(F)n1 [Example 18, 5-(4-((8-(3,3-difluorocyclobutoxy)-2-methyl-3-oxo-3,4-dihydroquinoxalin-6-yl)methyl)piperazin-1-yl)-6-fluoro-N-methylpicolinamide] | 0.9 | 7.9 | 1.7 | 54.7 | 93.3 | 
5 | CC#Cc1cc(CN2CCN(c3ccc(C(=O)NC)nc3C)CC2)cc2[nH]c(=O)c(C)nc12 [Example 38, N,6-dimethyl-5-(4-((2-methyl-3-oxo-8-(prop-1-yn-1-yl)-3,4-dihydroquinoxalin-6-yl)methyl)piperazin-1-yl)picolinamide] | 5 | 15.1 |  |  |  | 
6 | CNC(=O)c1ccc(N2CCN(Cc3cc(C#Cc4ccccc4)c4nc(C)c(=O)[nH]c4c3F)CC2)c(F)n1 [Example 53, 6-fluoro-5-(4-((5-fluoro-2-methyl-3-oxo-8-(phenylethynyl)-3,4-dihydroquinoxalin-6-yl)methyl)piperazin-1-yl)-N-methylpicolinamide] | 3940 | 963 |  |  |  | 
7 | CNC(=O)c1ccc(N2CCN(Cc3cc(OC(F)F)c4nc(C(F)F)c(=O)[nH]c4c3)CC2)c(F)n1 [Example 56, 5-(4-((8-(difluoromethoxy)-2-(difluoromethyl)-3-oxo-3,4-dihydroquinoxalin-6-yl)methyl)piperazin-1-yl)-6-fluoro-N-methylpicolinamide] | 14.7 | 8.3 |  |  |  | 
8 | Cc1nc2c(OC(F)F)cc(CN3CCN(c4ccc(C(=O)NC5CC5)nc4F)CC3)c(F)c2[nH]c1=O [Example 61, N-cyclopropyl-5-(4-((8-(difluoromethoxy)-5-fluoro-2-methyl-3-oxo-3,4-dihydroquinoxalin-6-yl)methyl)piperazin-1-yl)-6-fluoropicolinamide] | 20.3 | 8.59 |  |  |  | 
9 | CNC(=O)c1ccc(N2CCN(Cc3cc(-c4ccc(OC)cc4)c4nc(C)c(=O)[nH]c4c3)CC2)c(F)n1 [Example 69, 6-fluoro-5-(4-((8-(4-methoxyphenyl)-2-methyl-3-oxo-3,4-dihydroquinoxalin-6-yl)methyl)piperazin-1-yl)-N-methylpyridine amide] |  | 32.6 | 3.2 | 2751.7 | 8820 | 

Second part, led by results:

Row | IC50 [1] [nM] | IC50 [2] [nM] | IC50 [3] [nM] | Selectivity PARP2/PARP1 [3] | IC50 [4] [nM] | SMILES | further results
10 | 5.3 | 4.7 | 1.84 | 968.5 | 1780 | CNC(=O)c1ccc(N2CCN(Cc3cc(Oc4ccccc4)c4nc(C)c(=O)[nH]c4c3)CC2)c(F)n1 [Example 4, 6-fluoro-N-methyl-5-(4-((2-methyl-3-oxo-8-phenoxy-3,4-dihydroquinoxalin-6-yl)methyl)piperazin-1-yl)picolinamide] | 
11 | < 0.038 | 6.1 |  |  |  | CNC(=O)c1ccc(N2CCN(Cc3cc(Nc4ccccc4)c4nc(C)c(=O)[nH]c4c3)CC2)c(F)n1 [Example 5, 6-fluoro-N-methyl-5-(4-((2-methyl-3-oxo-8-(phenylamino)-3,4-dihydroquinoxalin-6-yl)methyl)piperazin-1-yl)picolinamide] | 
12 | 23.6 | 32.2 | 4.1 | 657.2 | 2690 | CNC(=O)c1ccc(N2CCN(Cc3cc(-c4ccccc4F)c4nc(C)c(=O)[nH]c4c3)CC2)c(F)n1 [Example 8, 6-fluoro-5-(4-((8-(2-fluorophenyl)-2-methyl-3-oxo-3,4-dihydroquinoxalin-6-yl)methyl)piperazin-1-yl)-N-methylpicolinamide] | 
13 | 8.1 | 11.1 | 1.61 | 705.3 | 1140 | CNC(=O)c1ccc(N2CCN(Cc3cc(-c4cccc(F)c4)c4nc(C)c(=O)[nH]c4c3)CC2)c(F)n1 [Example 9, 6-fluoro-5-(4-((8-(3-fluorophenyl)-2-methyl-3-oxo-3,4-dihydroquinoxalin-6-yl)methyl)piperazin-1-yl)-N-methylpicolinamide] | 
14 | 1.7 | 7.5 |  |  |  | CNC(=O)c1ccc(N2CCN(Cc3cc(-c4ccc(F)cc4)c4nc(C)c(=O)[nH]c4c3)CC2)c(F)n1 [Example 10, 6-fluoro-5-(4-((8-(4-fluorophenyl)-2-methyl-3-oxo-3,4-dihydroquinoxalin-6-yl)methyl)piperazin-1-yl)-N-methylpicolinamide] | 
15 | 10.7 | 12.9 | 3.01 | 224.6 | 676 | CNC(=O)c1ccc(N2CCN(Cc3cc(-c4cccnc4)c4nc(C)c(=O)[nH]c4c3)CC2)c(F)n1 [Example 11, 6-fluoro-N-methyl-5-(4-((2-methyl-3-oxo-8-(pyridin-3-yl)-3,4-dihydroquinoxalin-6-yl)methyl)piperazin-1-yl)picolinamide] | 
16 | 3.5 | 1.3 |  |  |  | C=Cc1cc(CN2CCN(c3ccc(C(=O)NC)nc3F)CC2)cc2[nH]c(=O)c(C)nc12 [Example 25, 6-fluoro-N-methyl-5-(4-((2-methyl-3-oxo-8-vinyl-3,4-dihydroquinoxalin-6-yl)methyl)piperazin-1-yl)picolinamide] | 
17 | 35.6 | 33.3 |  |  |  | CNC(=O)c1ccc(N2CCN(Cc3cc(-c4ccnn4C)c4nc(C)c(=O)[nH]c4c3)CC2)c(F)n1 [Example 68, 6-fluoro-N-methyl-5-(4-((2-methyl-8-(1-methyl-1H-pyrazol-5-yl)-3-oxo-3,4-dihydroquinoxalin-6-yl)methyl)piperazin-1-yl)picolinamide] | 
18 | 13.9 | 14.2 |  |  |  | CNC(=O)c1ccc(N2CCN(Cc3cc(-c4cnn(C)c4)c4nc(C)c(=O)[nH]c4c3)CC2)c(F)n1 [Example 70, 6-fluoro-N-methyl-5-(4-((2-methyl-8-(1-methyl-1H-pyrazol-4-yl)-3-oxo-3,4-dihydroquinoxalin-6-yl)methyl)piperazin-1-yl)picolinamide] | 
